Target: Mu-type opioid receptor (Homo sapiens, UniProt P35372)
Type: functional, cell-based, CHO-K1
Description: Antagonist activity at human MOR expressed in CHO-K1 cells assessed as reduction in fentanyl induced cAMP production incubated for 30 mins by Lance ultra cAMP assay

Chain of Mu-type opioid receptor (P35372 whole entry): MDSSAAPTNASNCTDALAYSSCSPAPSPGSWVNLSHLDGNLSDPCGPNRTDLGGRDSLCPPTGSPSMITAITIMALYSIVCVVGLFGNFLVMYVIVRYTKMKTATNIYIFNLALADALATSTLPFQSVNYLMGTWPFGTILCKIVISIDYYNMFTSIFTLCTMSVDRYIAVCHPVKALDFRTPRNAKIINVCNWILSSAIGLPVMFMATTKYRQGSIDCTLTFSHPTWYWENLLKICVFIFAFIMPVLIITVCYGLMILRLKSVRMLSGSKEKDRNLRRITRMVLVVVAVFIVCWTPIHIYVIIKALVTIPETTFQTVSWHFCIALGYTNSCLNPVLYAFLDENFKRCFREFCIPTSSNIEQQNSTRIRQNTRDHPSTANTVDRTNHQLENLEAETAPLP

## Oc1ccc2c3c1O[C@H]1C(=C(F)F)CC[C@@]4(O)[C@@H](C2)N(CC2CC2)CC[C@]314
  IC50: 5.1 nM

Source: ChEMBL document CHEMBL5107961, “Design, synthesis, and biological evaluation of C6-difluoromethylenated epoxymorphinan Mu opioid receptor antagonists” (RSC Med Chem, 2022)
